The record followed here is ChEMBL document CHEMBL3124876, “A perylene derivative regulates HIF-1α and Stat3 signaling pathways” (Bioorg Med Chem, 2014).

The target in test [1] is Signal transducer and activator of transcription 3 (Homo sapiens) (UniProt P40763). The test is described as follows: Inhibition of Stat3 in human MDA-MB-231 cells assessed as inhibition of Stat3 phosphorylation at 10 uM after 18 hrs by Western blotting analysis. Format: cell-based. (In general: Immunoblotting shows a protein as a band on a membrane.)
Sequence of Signal transducer and activator of transcription 3 (Homo sapiens) (P40763 whole entry): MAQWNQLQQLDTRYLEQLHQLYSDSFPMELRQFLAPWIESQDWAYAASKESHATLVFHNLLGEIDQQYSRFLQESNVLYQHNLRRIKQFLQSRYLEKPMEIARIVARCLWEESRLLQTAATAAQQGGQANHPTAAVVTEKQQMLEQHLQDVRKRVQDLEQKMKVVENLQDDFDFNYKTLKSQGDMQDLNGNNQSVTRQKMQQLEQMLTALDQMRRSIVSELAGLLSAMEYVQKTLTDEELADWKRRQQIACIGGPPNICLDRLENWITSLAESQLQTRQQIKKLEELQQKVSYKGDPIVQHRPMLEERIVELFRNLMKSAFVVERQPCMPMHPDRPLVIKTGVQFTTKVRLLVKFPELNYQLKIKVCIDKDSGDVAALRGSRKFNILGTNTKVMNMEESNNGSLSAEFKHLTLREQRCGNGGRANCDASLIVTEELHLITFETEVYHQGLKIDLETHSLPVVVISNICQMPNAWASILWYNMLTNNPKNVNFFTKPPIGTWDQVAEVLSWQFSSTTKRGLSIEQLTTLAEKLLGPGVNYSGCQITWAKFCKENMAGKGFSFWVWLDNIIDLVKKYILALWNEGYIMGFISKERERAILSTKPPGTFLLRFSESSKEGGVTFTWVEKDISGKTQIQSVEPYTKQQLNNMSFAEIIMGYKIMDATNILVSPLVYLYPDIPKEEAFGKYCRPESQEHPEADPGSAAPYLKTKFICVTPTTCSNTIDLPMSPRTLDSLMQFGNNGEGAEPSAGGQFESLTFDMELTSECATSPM
In test [2] the test system is MDA-MB-231. The test is described as follows: Anticancer activity in human MDA-MB-231 cells assessed as reduction of total Stat3 level at 10 uM after 18 hrs by Western blotting analysis. It counts as functional, cell-based.
Test [3] addresses Hypoxia-inducible factor 1-alpha (Homo sapiens) (UniProt Q16665). The test is described as follows: Inhibition of HIF-1alpha in human MDA-MB-231 cells at 10 uM after 18 hrs by Western blotting analysis in hypoxia condition. It counts as cell-based.
For test [4], the target named is Signal transducer and activator of transcription 3 (Homo sapiens) (UniProt P40763). Kind of test: Inhibition of Stat3 phosphorylation in human MDA-MB-231 cells assessed as inhibition of c-Myc expression at 1 to 20 uM by Western blotting analysis. It counts as cell-based.
Another test deals with MCF7. The test is described as follows: Induction of apoptosis in human MCF7 cells up to 20 uM by MTT assay. It counts as functional, cell-based. In general terms: Formazan colour is commonly taken as a measure of viable cells.
Test [5] has as its target Hypoxia-inducible factor 1-alpha (Homo sapiens) (UniProt Q16665). The test is described as follows: Inhibition of HIF-1 alpha in human MDA-MB-231 cells at 1 to 20 uM by Western blotting analysis. It counts as cell-based.
Another test is filed under the species Homo sapiens. Kind of test: Inhibition of telomerase (unknown origin).
The target in test [6] is Signal transducer and activator of transcription 3 (Homo sapiens) (UniProt P40763). The test is described as follows: Inhibition of Stat3 phosphorylation in human MDA-MB-231 cells at 1 to 20 uM by Western blotting analysis. Format: cell-based.
Test [7] concerns MDA-MB-231. The test is described as follows: Antitumor activity against human MDA-MB-231 cells xenografted in Balb nu/nu mouse assessed as reduction in tumor growth at 10 mg/kg, ip administered every other day for 10 days. Format: functional, organism-based. Further details: dose 10 mg/kg.
The target of test [8] is Hypoxia-inducible factor 1-alpha (Homo sapiens) (UniProt Q16665). The test is described as follows: Inhibition of HIF-1 alpha in human PANC1 cells after 3 hrs by Western blotting analysis in hypoxia condition. It counts as cell-based. To be noted: PANC-1.
Sequence of Hypoxia-inducible factor 1-alpha (Homo sapiens) (Q16665 whole entry, looked up): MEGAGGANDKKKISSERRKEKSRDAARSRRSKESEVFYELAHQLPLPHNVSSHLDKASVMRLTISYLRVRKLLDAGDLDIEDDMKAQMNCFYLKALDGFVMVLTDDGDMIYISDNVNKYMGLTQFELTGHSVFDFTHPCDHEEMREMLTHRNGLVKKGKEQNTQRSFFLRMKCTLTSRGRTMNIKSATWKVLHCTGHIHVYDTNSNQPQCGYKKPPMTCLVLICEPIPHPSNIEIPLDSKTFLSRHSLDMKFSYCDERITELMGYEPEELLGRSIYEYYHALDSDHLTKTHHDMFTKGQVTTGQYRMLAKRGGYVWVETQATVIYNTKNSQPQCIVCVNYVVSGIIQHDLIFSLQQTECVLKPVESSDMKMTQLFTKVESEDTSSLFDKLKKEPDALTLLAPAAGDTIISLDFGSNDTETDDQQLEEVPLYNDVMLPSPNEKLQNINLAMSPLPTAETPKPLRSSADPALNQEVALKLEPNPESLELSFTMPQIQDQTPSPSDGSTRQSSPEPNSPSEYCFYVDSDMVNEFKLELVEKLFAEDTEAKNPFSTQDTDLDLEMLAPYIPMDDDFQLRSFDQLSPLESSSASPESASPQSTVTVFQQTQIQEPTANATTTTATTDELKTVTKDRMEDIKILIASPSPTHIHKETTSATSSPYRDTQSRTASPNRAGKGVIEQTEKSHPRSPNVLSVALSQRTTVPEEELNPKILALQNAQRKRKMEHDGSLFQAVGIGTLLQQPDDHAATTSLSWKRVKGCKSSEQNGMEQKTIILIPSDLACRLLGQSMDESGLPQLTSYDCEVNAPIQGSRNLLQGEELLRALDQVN
The target of test [9] is Signal transducer and activator of transcription 3 (Homo sapiens) (UniProt P40763). The test is described as follows: Inhibition of IL6-induced STAT3 phosphorylation in human PANC1 cells after 3 hrs by Western blotting analysis in hypoxia condition. It counts as cell-based. The following applies: PANC-1.

Active and inactive are the calls of the source. The calls are words filed in the database; no cut-off is given here.

As to `CN(CCCN)CCCN1C(=O)c2ccc3c4ccc5c6c(ccc(c7ccc(c2c37)C1=O)c64)C(=O)N(CCCN(C)CCCCN)C5=O`, the inhibition entry in test [1] and in [3] was “inactive” throughout. Also, in the test with MDA-MB-231 [2], the result was inactive.

Consider `NCCCN1C(=O)c2ccc3c4ccc5c6c(ccc(c7ccc(c2c37)C1=O)c64)C(=O)N(CCCN)C5=O`, for which the inhibition result in [1] and in [3] was “inactive” each time. Also, the outcome in the test on MDA-MB-231 [2] was inactive.

Regarding `NCCN1C(=O)c2ccc3c4ccc5c6c(ccc(c7ccc(c2c37)C1=O)c64)C(=O)N(CCN)C5=O`, the inhibition result in [1], in [3], in test [4], in [5] and in test [6] was “inactive” throughout. The result with MDA-MB-231 [2] and in the test with MCF7 was inactive. For the same compound, in the test filed under Homo sapiens, the inhibition result was “Active”.

For `Nc1ccn([C@@H]2O[C@H](COP(=O)(O)O[C@H]3[C@@H](O)[C@H](n4cnc5c(=O)[nH]c(N)nc54)O[C@@H]3COP(=O)(O)O[C@H]3[C@@H](O)[C@H](n4cnc5c(=O)[nH]c(N)nc54)O[C@@H]3COP(=O)(O)O[C@H]3[C@@H](O)[C@H](n4cnc5c(=O)[nH]c(N)nc54)O[C@@H]3COP(=O)(O)O[C@H]3[C@@H](O)[C@H](n4ccc(N)nc4=O)O[C@@H]3COP(=O)(O)O[C@H]3[C@@H](O)[C@H](n4cnc5c(=O)[nH]c(N)nc54)O[C@@H]3COP(=O)(O)O[C@H]3[C@@H](O)[C@H](n4cnc5c(=O)[nH]c(N)nc54)O[C@@H]3COP(=O)(O)O[C@H]3[C@@H](O)[C@H](n4cnc5c(=O)[nH]c(N)nc54)O[C@@H]3COP(=O)(O)O[C@H]3[C@@H](O)[C@H](n4ccc(N)nc4=O)O[C@@H]3COP(=O)(O)O[C@H]3[C@@H](O)[C@H](n4cnc5c(=O)[nH]c(N)nc54)O[C@@H]3COP(=O)(O)O[C@H]3[C@@H](O)[C@H](n4cnc5c(=O)[nH]c(N)nc54)O[C@@H]3COP(=O)(O)O[C@H]3[C@@H](O)[C@H](n4cnc5c(=O)[nH]c(N)nc54)O[C@@H]3COP(=O)(O)O[C@H]3[C@@H](O)[C@H](n4ccc(N)nc4=O)O[C@@H]3COP(=O)(O)O[C@H]3[C@@H](O)[C@H](n4cnc5c(=O)[nH]c(N)nc54)O[C@@H]3COP(=O)(O)O[C@H]3[C@@H](O)[C@H](n4cnc5c(=O)[nH]c(N)nc54)O[C@@H]3COP(=O)(O)O[C@H]3[C@@H](O)[C@H](n4cnc5c(=O)[nH]c(N)nc54)O[C@@H]3COP(=O)(O)O)[C@@H](O)[C@H]2O)c(=O)n1`, the outcome with MDA-MB-231 [7] was Active. Besides, the inhibition entry in test [8] is “inactive”. Also, the inhibition entry in [9] was “Active”.
